Laboratory results as given in US9103791B1, “Thallium fluorescent ion indicator and assay” (Vanderbilt University, priority 2012, dated 2015).

Key:
[1] = system: HEK-293 cells stably transfected with hERG potassium channels; assay: "Wash" protocol thallium flux fluorescence assay; type: cell-based; details: range of dofetilide concentrations, slopes of normalized fluorescence 12-22 s, compared between indicators
Procedure: The wash protocol experiment was conducted as follows. To a 384-well, black-wall, clear bottom, poly-D-lysine coated plate, add 20 μl/well of α-MEM containing 10% fetal bovine serum and 1× glutaGRO (Cell Culture Medium) and a 1000 cell/μl suspension of HEK-293 cells stably transfected with hERG potassium channels (Cell Plate). Incubate the Cell Plate overnight in a 5% CO2 cell culture incubator at 37° C. Remove the Cell Culture Medium from the Cell Plate and replace it with 20 μl/well Hanks Balanced Salt Solution+20 mM HEPES pH 7.3 (Assay Buffer). Dissolve 25 μg of thallium ion indicator (also referred to as a “dye”) in 25 μl DMSO containing 7% (w/v) Pluronic F-127. Add 12.5 μl of the dissolved thallium ion indicator to 10 ml Assay Buffer (Dye Loading Solution). Add 20 μl/well of Dye Loading Solution to the Cell Plate. Incubate the Cell Plate containing Dye Loading Solution for 1 hour at room temperature. […] Analyze data representing the amplitude of the fluorescent signal for each well at each of the 120 time points acquired during the Data Acquisition Protocol using Microsoft Excel by first dividing the fluorescence values from each individual well at each time point by the fluorescent value for that well at the first time point (Normalized Fluorescence Values). Calculate slopes of the Normalized Fluorescence Values between the 12 second and 22 second time points (Slope Values). […]

[2] = system: HEK-293 cells stably transfected with hERG potassium channels; assay: "No-wash" protocol thallium flux fluorescence assay; type: cell-based; details: no-wash protocol with 1.25 mM probenecid; range of dofetilide concentrations; compared to FluoZin-2, AM
Procedure: The no-wash protocol was conducted as follows. To a 384-well, black-wall, clear bottom, poly-D-lysine coated plate, add 20 μl/well of α-MEM containing 10% fetal bovine serum and 1× glutaGRO (Cell Culture Medium) and a 1000 cell/μl suspension of HEK-293 cells stably transfected with hERG potassium channels (Cell Plate). Incubate the Cell Plate overnight in a 5% CO2 cell culture incubator at 37° C. Remove the Cell Culture Medium from the Cell Plate and replace it with 20 μl/well Hanks Balanced Salt Solution+20 mM HEPES pH 7.3+1.25 mM Probenecid (sodium salt) (NW-Assay Buffer). Dissolve 25 μg thallium ion indicator (also referred to herein as a “dye”) in 25 μl DMSO containing 7% (w/v) Pluronic F-127. Add 12.5 μl of the dissolved thallium ion indicator to 10 ml Probenecid Assay Buffer (NW-Dye Loading Solution). Add 20 μl/well of Dye Loading Solution to the Cell Plate. […] Analyze data representing the amplitude of the fluorescent signal for each well at each of the 120 time points acquired during the Data Acquisition Protocol using Microsoft Excel by first dividing the fluorescence values from each individual well at each time point by the fluorescent value for that well at the first time point (Normalized Fluorescence Values). Calculate slopes of the Normalized Fluorescence Values between the 12 second and 22 second time points (Slope Values). […]

Structure (SMILES) | fluorescence results (indicator performance, FIG. 1) [1] | normalized signal amplitude (FIG. 2) [2]
COc1cc(NC(=O)c2ccc3c(c2)C(=O)OC32c3ccc(OC(C)=O)cc3Oc3cc(OC(C)=O)ccc32)ccc1N(CC(=O)OCOC(C)=O)CC(=O)OCOC(C)=O [Example 1, bis(acetoxymethyl) 2,2′-((4-(3′,6′-diacetoxy-3-oxo-3H-spiro[isobenzofuran-1,9′-xanthen]-5-ylcarboxamido)-2-methoxyphenyl)azanediyl)diacetate] | essentially indistinguishable | substantial and unexpected improvement in normalized signal amplitude over FluoZin-2, AM
COc1cc(NC(=O)c2ccc3c(c2)C(=O)OC32c3cc(F)c(OC(C)=O)cc3Oc3cc(OC(C)=O)c(F)cc32)ccc1N(CC(=O)OCOC(C)=O)CC(=O)OCOC(C)=O [FluoZin-2, AM, reference compound] | essentially indistinguishable | 
